Measurements as given in publication PMC12280060, “Design of linear and cyclic peptide binders from protein sequence information” (Communications Chemistry, 2025).
No end group written: not given here.

B1: known peptide binder (11 residues) of the semi-synthetic Ribonuclease, PYVPVHFDASV (peptide)
peptide: PYVPVHFDASV
notes: also called WT; positive control; source: synthetic peptide

Key:
[1] = molecular target: T1, semi-synthetic Ribonuclease (PDB ID 1SSC), immobilised as MBP-8xHis-1SSC (Bos taurus, UniProt P61823); assay: biochemical; assay type: binding
T1 construct: made in house; host or cells: E. coli BL21 (DE3) T1R
T1 sequence (P61823 27-138 limits assumed): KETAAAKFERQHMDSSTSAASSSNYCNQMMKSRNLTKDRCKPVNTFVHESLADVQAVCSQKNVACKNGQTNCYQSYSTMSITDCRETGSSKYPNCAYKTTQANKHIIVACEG

[2] = molecular target: T2, semi-synthetic Ribonuclease (PDB ID 1SSC), MBP-8xHis fusion construct (UniProt P61823 27-138); assay: SPR; MBP-8xHis-1SSC immobilised to about 12000 RU by amine coupling on a CM5 chip; peptides as analytes, single-cycle kinetics, 2 nM to 20 uM; 25 °C; HBS-EP+ (10 mM HEPES pH 7.4, 3 mM EDTA, 150 mM NaCl, 0.05% Tween-20); Biacore 8K; 1:1 binding model; settings: both partners purified
T2 construct: also called MBP-8xHis-1SSC; psfRNAseA; source: E. coli BL21 (DE3) T1R, purified (IMAC, size exclusion chromatography)
T2 sequence: T1 sequence (P61823 27-138 limits assumed)

Row | Molecule | Kd [1] [nM] | Kd [2] [nM]
1 | PYVPVHFDASV [PYVPVHFDASV] | 1220 | –
2 | B1 | – | 1200
